# Assay results as given in patent publication US20150157691A1, “Galectin-3 to Treat Ovarian Cancer” (Texas Tech University System, priority 2013, published 2015).
# How the values were obtained:
# [1] = test system: Akt/NF-κB pathway; assay: Western blotting of Akt/NF-κB pathway activation in OC cells; format: cell-based; settings: 48 hours, Western blot; for levels of phosphorylated, active NF-κB (P-p65) / phospho-Akt (P-Akt) levels: 10 μg/mL Gal-3C, 8 nM paclitaxel or combined
# Experimental: Western blotting. Cells were harvested and washed twice with PBS, then lysed (25), and resolved on 12% Bis-Tris (Bis(2-hydroxyethyl)-amino-tris(hydroxymethyl)-methane) poly-acrylamide gel (Invitrogen) and then electrotransferred onto 0.2 μm nitrocellulose membrane. After rinsing in PBS-Tween, the blot was incubated in protein-free blocking buffer (Pierce/Thermo) at 4° C. overnight, then incubated with the indicated primary antibodies (Cell Signaling Technology, Inc., Danvers, Mass. USA) diluted in blocking buffer for 2 hours at RT. After washing 5 times with PBS-Tween, the blot was incubated with matched horseradish peroxidase-coupled secondary antibodies, and developed with the ECL Western blotting Detection System from Perkin-Elmer Life Sciences (Boston, Mass., USA).
# Gal-3C reversed the effect of paclitaxel on NF-κB activation by reducing the phosphorylation of Akt. OC cells treated for 48 hours with 10 μg/mL Gal-3C, 8 nM paclitaxel, or combined treatments as described above, then protein extracts were analyzed by Western blotting. […] Increased or decreased levels of p65 phosphorylation (P-p65) were in accordance with higher or lower levels (respectively) of IKB and IKKα/β phosphorylation, as expected. […] To rule out the possibility that alterations in the phosphorylation of p-65, IKB, IKK, or Akt were the results of modulations in the expression levels, total p-65, IKB, IKK, or Akt (phosphorylated and not-phosphorylated forms) were also examined (FIGS. 3A and 3B).
# [2] = test system: HUVEC cells; assay: Vascular endothelial cell (HUVEC) Transwell migration assay with OC conditioned medium; format: cell-based, human; settings: for HUVEC migration induced by conditioned media of treated OC cells: conditioned media from SKOV-3 cells treated 48 hours, 10 μg/mL Gal-3C or 8 nM paclitaxel, compared with controls; for HUVEC chemotaxis, direct effect of residual drugs: control OC-conditioned medium supplemented with 2 μg/mL Gal-3C, 1.6 nM paclitaxel, or combined, results not shown
# Experimental: The experiments were run in triplicate and the results are expressed as the mean number of migrated cells in the presence of different stimuli.
# After 48-hour treatments (10 μg/mL Gal-3C, 8 nM paclitaxel, or combined drugs), the conditioned media form SKOV-3 cells was harvested and tested for its ability to induce migration of HUVEC cells in a Transwell assay. […] To test if residual drugs in the conditioned media could inhibit HUVEC migration, a migration assay was performed in the presence of control OC-conditioned medium supplemented with 20% of drug amounts (2 μg/mL Gal-3C, 1.6 nM paclitaxel, and combined drugs).
# [3] = test system: αvβ3 integrin clusters in HUVEC cells; assay: αvβ3 integrin clustering assay; format: cell-based, human; settings: conditioned medium of OC cells pre-treated 48 h; 10 μg/mL Gal-3C, 8 nM paclitaxel or combined
# Experimental: αvβ3 integrin clustering assay. HUVEC cells were cultured in 8-chamber slides coated with 10 μg/mL fibronectin (10^4 cells/chamber). Cells were incubated with conditioned medium of SKOV-3 cells (obtained as described for the tubule formation assay) for 20 minutes to allow integrin clustering, then fixed with 4% WN buffered (pH=7.5) paraformaldehyde in PBS (10 minutes at 37° C.). Then, cells were incubated with 10 μg/mL anti-integrin αvβ3 antibody (R&D Systems, 1:200 dilution in PBS) for 1 hour at RT, followed by two washing steps in PBS (5 minutes each) prior to the addition of FITC-anti-mouse IgG (1:1000 dilution in PBS) for 1 hour at RT. Microphotographs of randomly selected fields were acquired at 60× magnification by confocal microscopy (Leica TCS-SL Confocal Spectral Microscope System, Leica Microsystems, Buffalo Grove, Ill., USA).
# Gal-3C blocked OC cell angiogenic potential and αvβ3 integrin clustering. To study the effects of Gal-3C on OC cells ability to induce the formation of new vessels, an in vitro tubule formation assay was carried out using HUVEC cells stimulated with the conditioned media (20% V/V) of OC cells pre-treated for 48 hours with 10 μg/mL Gal-3C, 8 nM paclitaxel, or a combination of both treatments. […] The amount of branching points was also calculated through the Wimasis WimTube software, as described hereinabove. […]
# [4] = test system: HUVEC cells; assay: In vitro tubule formation (angiogenesis) assay with OC conditioned media; format: cell-based, human; settings: for formation of vessel-like structures by HUVEC cells: conditioned media (20% V/V) of OC cells pre-treated 48 hours, 10 μg/mL Gal-3C, 8 nM paclitaxel or combination; for average number of branching points: conditioned media of 48-h treated OC cells, all tested OC cells, compared with vehicle-treated cells; for tubule formation, direct effect of drugs: conditioned media of untreated OC cells (20% V/V) supplemented with 10 μg/mL Gal-3C, 8 nM paclitaxel or both, results not shown
# Experimental: Tubule formation assay. A capillary tubule formation assay was performed as previously described (25). Briefly, growth factor-reduced Matrigel™ (50 μL/well; Becton Dickinson) was added with 30 ng/mL recombinant basic fibroblastic growth factor (bFGF; R&D Systems) and incubated for 1 hour at 37° C. 2-h serum-starved HUVEC cells (5,000), were resuspended in 200 μL serum-free EGM-2 medium (Lonza) supplemented with 20% V/V conditioned medium from differently treated OC cells (obtained after 48-h treatment of OC cells with 10 μg/mL Gal-3C, 8 nM paclitaxel, the combination of both, or 0.6% V/V PBS as drug vehicle). HUVEC were then seeded onto the Matrigel™ and incubated at 37° C. and 5% CO2 for 16 hours to allow tubule formation. The assays were run in triplicate, and microphotographs were taken using 40× and 20× objectives with an inverted X71 microscope (Olympus). Pictures were also used to count the number of branching points originated by HUVEC cells, as a measure of the degree of angiogenesis, by the Wimasis WimTube software (Wimasis GmbH, Munich, Germany). Statistically significant differences in the number of branching points were analyzed by the Kruskal-Wallis test followed by a Dunns post-test, to compare all the treatment groups with each other.
# Gal-3C blocked OC cell angiogenic potential and αvβ3 integrin clustering. To study the effects of Gal-3C on OC cells ability to induce the formation of new vessels, an in vitro tubule formation assay was carried out using HUVEC cells stimulated with the conditioned media (20% V/V) of OC cells pre-treated for 48 hours with 10 μg/mL Gal-3C, 8 nM paclitaxel, or a combination of both treatments. […] The amount of branching points was also calculated through the Wimasis WimTube software, as described hereinabove. […] A parallel set of experiments were performed using a mixture consisting of the 48-hour conditioned media of each untreated OC cell line (20% V/V) supplemented with 10 μg/mL Gal-3C, 8 nM paclitaxel, or 10 μg/mL Gal-3C+8 nM paclitaxel. […] This outcome on in vitro angiogenesis was correlated with an evident reduction in the clusters of αvβ3 integrins (FIG. 7).
# [5] = test system: ID8; assay: Cell viability (ViaLight Plus), ID8; format: cell-based, murine; settings: Gal-3C single agent, escalating concentrations (0, 2, 10, 20 μg/mL), 48 hours, on average
# Experimental: (§1) Cell viability. Cell proliferation was assessed with a ViaLight Plus Cell Proliferation and Cytotoxicity BioAssay Kit (Lonza, Walkersville, Md., USA) according to the directions of the manufacturer. In brief, OC cells were seeded in 100 μL RPMI-1640 with 10% heat-inactivated FBS in 96-well plates (8×10^3/well). Each drugs/drug combination was tested in triplicate. Luminescence was measured with a 1-s integrated setting in a Berthold luminometer.
# (§2) Administration of Gal-3C reduced OC cell viability when used as a single agent and improved the effects of paclitaxel. OC cells were treated with escalating concentrations of Gal-3C (0, 2, 10, and 20 μg/mL) for 48 hours, then viability was measure as described in methods, and expressed as percentage of control cells (treated with equal amounts of drug vehicle). […] On average, viability was reduced by 25% in SKOV-3, 50% in ID8, 29% in Pt1 and 57% in Pt2 cells. Then, in a separate set of experiments, OC cells were treated for 48 hours with 10 μg/mL Gal-3C, 8 nM paclitaxel, or combined 10 μg/mL Gal-3C+8 nM paclitaxel.
# [6] = compared with available standard treatments; cited from earlier work
# [7] = test system: SKOV-3; assay: Cell viability (ViaLight Plus), SKOV-3; format: cell-based, human; settings: Gal-3C single agent, escalating concentrations (0, 2, 10, 20 μg/mL), 48 hours, on average
# Experimental: as §1, §2
# [8] = test system: OC cells; assay: Matrigel invasion assay; format: cell-based; settings: 48-hour treatment; 10 μg/mL Gal-3C, 8 nM paclitaxel or combined; compared with controls
# Experimental: Invasion assay. OC invasion potential was measured as described (25), using Transwell™ polycarbonate inserts (5-μm pore size).
# Gal-3C reduced OC invasion and migration alone and in combination with paclitaxel. After 48-hour treatment with 10 μg/mL Gal-3C, 8 nM paclitaxel, or combined drugs, OC cells were tested for in vitro invasivity and motility abilities as described in methods.
# [9] = test system: OC cells (SKOV-3, ID8, Pt1, Pt2); assay: Cell viability, statements for all OC cells tested; format: cell-based; settings: 48 hours
# Experimental: as §1, §2
# [10] = test system: Pt1; assay: Cell viability (ViaLight Plus), primary OC cells Pt1; format: cell-based, human; settings: Gal-3C single agent, escalating concentrations (0, 2, 10, 20 μg/mL), 48 hours, on average
# Experimental: (§3) Cells. The OC cell lines used in this study were SKOV-3 and ID8 (American Type Culture Collection, Manassas, Va., USA), while primary epithelial OC cells from two patients were obtained with approval from the Texas Tech University HSC IRB (L-Micro Study, IRB NUMBER: L04-095), and the patients' written informed consent. All OC cells were cultured in RPMI-1640 medium supplemented with 10% fetal bovine serum (FBS, Thermo Scientific, Rockford, Ill., USA) in 5% CO2 atmosphere at 37° C. Human Umbilical Vein Endothelial Cells (HUVEC, American Type Culture Collection) were maintained in EGM-2 medium supplemented with endothelial cells growth factors (Lonza, Houston, Tex., USA) and were used within 10 passages.
# (§4) Cell viability. Cell proliferation was assessed with a ViaLight Plus Cell Proliferation and Cytotoxicity BioAssay Kit (Lonza, Walkersville, Md., USA) according to the directions of the manufacturer. […] Luminescence was measured with a 1-s integrated setting in a Berthold luminometer.
# (§5) Administration of Gal-3C reduced OC cell viability when used as a single agent and improved the effects of paclitaxel. OC cells were treated with escalating concentrations of Gal-3C (0, 2, 10, and 20 μg/mL) for 48 hours, then viability was measure as described in methods, and expressed as percentage of control cells (treated with equal amounts of drug vehicle). […]
# [11] = test system: OC cells; assay: Transwell migration assay of OC cells; format: cell-based; settings: 48-hour treatment; 10 μg/mL Gal-3C, 8 nM paclitaxel or combined; compared with controls
# Experimental: Migration assays. 4×10^5 cells were plated in 100 μL serum-free culture medium (supplemented with drugs or vehicle) in the top chambers of 24-well Transwell™ polycarbonate inserts (Corning Costar, NY, USA) with 8-μm pores. Complete culture medium (600 μL) was added to the bottom chamber. After incubation for 4 hours, cells on lower side of the filter were fixed, stained and counted as described (25).
# After 48-hour treatment with 10 μg/mL Gal-3C, 8 nM paclitaxel, or combined drugs, OC cells were tested for in vitro invasivity and motility abilities as described in methods.
# [12] = test system: Pt2; assay: Cell viability (ViaLight Plus), primary OC cells Pt2; format: cell-based, human; settings: Gal-3C single agent, escalating concentrations (0, 2, 10, 20 μg/mL), 48 hours, on average
# Experimental: as §3, §4, §5
Compound,"levels of phosphorylated, active NF-κB (P-p65) [1]",phospho-Akt (P-Akt) levels [1],HUVEC migration induced by conditioned media of treated OC cells [2],"HUVEC chemotaxis, direct effect of residual drugs [2]",αvβ3 integrin clusters in HUVEC cells [3],formation of vessel-like structures by HUVEC cells [4],average number of branching points [4],"tubule formation, direct effect of drugs [4]","phosphorylated IKKB, IKK levels ([1]; 10 μg/mL Gal-3C alone, compared with controls)",viability reduced (percentage of control cells) [5] [%],toxicity profile [6],viability reduced (percentage of control cells) [7] [%],OC cell invasion [8],"concentration from which cell viability is significantly reduced ([9]; 0, 2, 10, 20 μg/mL tested) [µg/mL]","cell viability, comparison between treatments ([9]; 10 μg/mL Gal-3C, 8 nM paclitaxel or combined)",viability reduced (percentage of control cells) [10] [%],OC cell migration [11],viability reduced (percentage of control cells) [12] [%]
"CC(=O)O[C@H]1C(=O)[C@@]2(C)[C@H]([C@H](OC(=O)c3ccccc3)[C@]3(O)C[C@H](OC(=O)[C@H](O)[C@@H](NC(=O)c4ccccc4)c4ccccc4)C(C)=C1C3(C)C)[C@]1(OC(C)=O)CO[C@@H]1C[C@@H]2O [paclitaxel, Paclitaxel, reference compound]",increased,increased,unable to reduce the production of HUVEC chemotactic factors,did not significantly affect HUVEC chemotaxis,still preserved the ability to induce αvβ3 integrin cluster in HUVEC cells (even if at a lower extent compared with control),significantly reduce,significantly reduced,unable to significantly affect tubule formation,–,–,–,–,–,–,–,–,–,–
"Gal-3C: truncated, dominant-negative form of Galectin-3; last 143 carboxy-terminal amino acid residues of human Galectin-3 (SEQ ID NO. 4)",reduction,reduction,significant effect,did not significantly affect HUVEC chemotaxis,completely abrogated,significantly reduce,significantly reduced,unable to significantly affect tubule formation,reduction,50,very low toxicity profile,25,significantly reduced,≥ 10,more effective in reducing cell viability compared with paclitaxel in all cell lines except SKOV-3,29,significantly reduced,57
